These results are taken from patent publication US5079357A, “Derivatives of penem” (Daiichi Pharmaceutical Co., Ltd., priority 1985, dated 1992).

Assay in all cases: antibacterial activity (MIC), broth dilution method
What all share (format): cell-based
For orientation: Broth dilution looks for growth in wells or tubes with falling amounts of substance.

Assay [1] relates to Ps. aeruginosa, 32233. The following applies: Pseudomonas aeruginosa, Muller-Hinton broth, 10^5 /ml bacteria, 37° C., 18 hours, read-out: Minimal Inhibitory Concentration (MIC). The protocol:
(§1) On some of the compounds according to the present invention, the antibacterial activity was determined by broth dilution method in Muller-Hinton broth in which 10^5 /ml of bacteria were seaded and incubated at 37° C. for 18 hours.

Assay [2] relates to S. aureus, 209P. The following applies: Staphylococcus aureus, Muller-Hinton broth, 10^5 /ml bacteria, 37° C., 18 hours, read-out: Minimal Inhibitory Concentration (MIC). The protocol: as §1
In assay [3] the test system is Ent. cloacae, 03400. The following applies: Enterobacter cloacae, Muller-Hinton broth, 10^5 /ml bacteria, 37° C., 18 hours, read-out: Minimal Inhibitory Concentration (MIC). The procedure:
as §1

Assay [4] has as its system E. coli, NIHJ. The following applies: Escherichia coli, Muller-Hinton broth, 10^5 /ml bacteria, 37° C., 18 hours, read-out: Minimal Inhibitory Concentration (MIC). The procedure: as §1
Assay [5] relates to Ser. Marcescens, 10104. The following applies: Serratia marcescens, Muller-Hinton broth, 10^5 /ml bacteria, 37° C., 18 hours, read-out: Minimal Inhibitory Concentration (MIC). The protocol:
as §1

Structures are written as SMILES. In brackets after ≈: the same amount, converted by molar mass.

With `CC(O)C1C(=O)N2C(C(=O)[O-])=C(SC3CCn4c[n+](C)cc43)SC12` (single isomer, unassigned) [B], the MIC in assay [1] was 0.78 µg/mL (≈ 2.12 µM); in assay [2] it was not above 0.05 µg/mL; in assay [3] it was 0.2 µg/mL (≈ 0.544 µM); in assay [4], 0.1 µg/mL (≈ 0.272 µM); in assay [5], 0.78 µg/mL (≈ 2.12 µM).
Turning to `CC(O)C1C(=O)N2C(C(=O)O)=C(SC3Cc4nncn4C3)SC12` [A, (5R, 6S, 8R)-6-(1-hydroxyethyl)-2-[(6,7-dihydro-5H-pyrrolo[(2,1-c]-1,2,4-triazol-6-yl)thio]-2-penem-3-carboxylic acid], the MIC in assay [1] is 25 µg/mL (≈ 70.5 µM); in assay [2], not above 0.05 µg/mL; in assay [3], 0.39 µg/mL (≈ 1.1 µM); in assay [4] it was not above 0.05 µg/mL; in assay [5] it was 0.78 µg/mL (≈ 2.2 µM).
Take `CC(O)C1C(=O)N2C(C(=O)O)=C(SCCOC(N)=O)SC12` (stereo not drawn) [Sch 34343, reference compound]: the MIC in assay [1] was found to be 100 µg/mL (≈ 299 µM); in assay [2], 0.1 µg/mL (≈ 0.299 µM); in assay [3], 0.78 µg/mL (≈ 2.33 µM); in assay [4] it was 0.39 µg/mL (≈ 1.17 µM); in assay [5] it was 3.13 µg/mL (≈ 9.36 µM).
